Laboratory results: the supplement of paper PMC5908809

Experiments:
[1] = system: normal NK cells expanded with K562-aAPC; assay: percent inhibition of viability; higher = more inhibition; conditions: 72 h, IL-2 2.5 ng/mL
Description: (§1)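 Drug sensitivity and resistance testing on K562-aAPC-expanded normal NK cells: 5 concentrations (10-fold steps over a 10,000-fold range), 72 h at 37 °C, viability by CellTiter-Glo normalised to DMSO and benzethonium chloride controls; DSS from the fitted curve.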

NKL (IL-2 2.5 ng/mL) [2] = assay: as above; conditions: 72 h
NK-92 (IL-2 2.5 ng/mL) [3] = assay: as above; conditions: 72 h
YT (IL-2 2.5 ng/mL) [4] = assay: as above; conditions: 72 h
[5] = system: normal primary NK cells, pool 1 (3 donors), resting (IL-2 0 ng/mL); assay: as above; conditions: 72 h
[6] = system: normal primary NK cells, pool 2 (3 donors) (IL-2 2.5 ng/mL); assay: as above; conditions: 72 h
KAI3 (IL-2 2.5 ng/mL) [7] = assay: as above; conditions: 72 h
[8] = system: normal primary NK cells, pool 1 (3 donors) (IL-2 2.5 ng/mL); assay: as above; conditions: 72 h
[9] = system: normal primary NK cells, pool 3 (3 donors) (IL-2 2.5 ng/mL); assay: as above; conditions: 72 h
IMC-1 (IL-2 20 ng/mL) [10] = assay: as above; conditions: 72 h
NK-YS (IL-2 2.5 ng/mL) [11] = assay: as above; conditions: 72 h
DERL-7 (IL-2 2.5 ng/mL) [12] = assay: as above; conditions: 72 h
SNK-6 (IL-2 2.5 ng/mL) [13] = assay: as above; conditions: 72 h
KHYG-1 (IL-2 2.5 ng/mL) [14] = assay: as above; conditions: 72 h
NKL (IL-2 2.5 ng/mL) [15] = assay: drug sensitivity score (DSS) (DSS units); higher = more sensitive; extreme values may be limits of the assay; conditions: 72 h
NK-92 (IL-2 2.5 ng/mL) [16] = assay: as above; conditions: 72 h
YT (IL-2 2.5 ng/mL) [17] = assay: as above; conditions: 72 h
[18] = system: normal primary NK cells, pool 1 (3 donors), resting (IL-2 0 ng/mL); assay: as above; conditions: 72 h
[19] = system: normal primary NK cells, pool 2 (3 donors) (IL-2 2.5 ng/mL); assay: as above; conditions: 72 h
KAI3 (IL-2 2.5 ng/mL) [20] = assay: as above; conditions: 72 h
[21] = system: normal primary NK cells, pool 1 (3 donors) (IL-2 2.5 ng/mL); assay: as above; conditions: 72 h
[22] = system: normal primary NK cells, pool 3 (3 donors) (IL-2 2.5 ng/mL); assay: as above; conditions: 72 h
IMC-1 (IL-2 20 ng/mL) [23] = assay: as above; conditions: 72 h
NK-YS (IL-2 2.5 ng/mL) [24] = assay: as above; conditions: 72 h
DERL-7 (IL-2 2.5 ng/mL) [25] = assay: as above; conditions: 72 h
SNK-6 (IL-2 2.5 ng/mL) [26] = assay: as above; conditions: 72 h
KHYG-1 (IL-2 2.5 ng/mL) [27] = assay: as above; conditions: 72 h
[28] = system: normal NK cells expanded with K562-aAPC; assay: as above; conditions: 72 h; IL-2 2.5 ng/mL
Description: as §1

COc1cccc2c1c(O)c(C(=O)N(C)c1ccc(C(F)(F)F)cc1)c(=O)n2C [Tasquinimod] (max concentration tested 10000 nM)
percent inhibition of viability [%]
Conditions | 1 nM | 10 nM | 100 nM | 1000 nM | 10000 nM
DERL-7 (IL-2 2.5 ng/mL) [12] | -3.57 | -2.07 | -7.69 | -10.8 | -11.1
IMC-1 (IL-2 20 ng/mL) [10] | -0.7 | -0.26 | 6.03 | 4.89 | 24.9
KAI3 (IL-2 2.5 ng/mL) [7] | -4.26 | 7.35 | 5.88 | 0.64 | 16.9
KHYG-1 (IL-2 2.5 ng/mL) [14] | -2.03 | 0.19 | 16.6 | 3.8 | 15.4
NK-92 (IL-2 2.5 ng/mL) [3] | -9.77 | 4.66 | 9.08 | 0.57 | 14.6
NK-YS (IL-2 2.5 ng/mL) [11] | 0.96 | 4.34 | 12.7 | 5.52 | 18.5
NKL (IL-2 2.5 ng/mL) [2] | -7.64 | -0.44 | 4.18 | -3.6 | 2.35
SNK-6 (IL-2 2.5 ng/mL) [13] | -5.13 | 6.31 | 6.1 | 14.1 | 15.8
YT (IL-2 2.5 ng/mL) [4] | -0.31 | 1.63 | 5.58 | -0.55 | 12.3
[1] | -7.07 | 0.32 | 1.21 | 7.82 | 14.8
[5] | 8.18 | -8.58 | -1.08 | -15.9 | -8.64
[6] | -8.15 | -6.65 | -1.09 | -7.24 | -2.69
[8] | 3.81 | -6.54 | 6.5 | -11.9 | 5.24
[9] | -20.6 | -6.75 | -1.92 | -3.86 | -2.57

Conditions | drug sensitivity score
DERL-7 (IL-2 2.5 ng/mL) [25] | 0
IMC-1 (IL-2 20 ng/mL) [23] | 1.63
KAI3 (IL-2 2.5 ng/mL) [20] | 0.42
KHYG-1 (IL-2 2.5 ng/mL) [27] | 0.64
NK-92 (IL-2 2.5 ng/mL) [16] | 0.25
NK-YS (IL-2 2.5 ng/mL) [24] | 0.88
NKL (IL-2 2.5 ng/mL) [15] | 0
SNK-6 (IL-2 2.5 ng/mL) [26] | 1.33
YT (IL-2 2.5 ng/mL) [17] | 0.05
[18] | 0
[19] | 0
[21] | 0
[22] | 0
[28] | 0.52

O=c1cc(N2CCOCC2)oc2c(-c3ccccc3)cccc12 (max concentration tested 100000 nM)
percent inhibition of viability [%]
Conditions | 10 nM | 100 nM | 1000 nM | 10000 nM | 100000 nM
DERL-7 (IL-2 2.5 ng/mL) [12] | 0.77 | -1.71 | 9.97 | 64.1 | 97.4
IMC-1 (IL-2 20 ng/mL) [10] | -0.85 | -3.31 | -2.01 | -5.98 | 86.2
KAI3 (IL-2 2.5 ng/mL) [7] | -1.02 | -1.63 | 6.02 | 25.9 | 59.6
KHYG-1 (IL-2 2.5 ng/mL) [14] | -1.25 | -1.33 | 4.59 | 30.1 | 89.5
NK-92 (IL-2 2.5 ng/mL) [3] | -5.7 | -3.95 | -4.94 | 24 | 64.1
NK-YS (IL-2 2.5 ng/mL) [11] | -4.69 | -3.69 | 1.75 | 45.5 | 83.3
NKL (IL-2 2.5 ng/mL) [2] | -14.3 | -15.8 | 3.05 | 55.1 | 69.6
SNK-6 (IL-2 2.5 ng/mL) [13] | 3.19 | 3.24 | 18.5 | 59.4 | 92.6
YT (IL-2 2.5 ng/mL) [4] | 1.36 | 2.44 | 6.09 | 37.3 | 68.7
[1] | -2.73 | -3.41 | 4.76 | 39.4 | 94.5
[5] | -0.68 | 6.88 | 14.6 | 52.6 | 92.9
[6] | -8.94 | -2.33 | 8.53 | 41.1 | 95.9
[8] | -1.05 | 3.02 | 7.28 | 35.5 | 97.6
[9] | -5.94 | -9.6 | -2.64 | 20.7 | 96.5

Conditions | drug sensitivity score
DERL-7 (IL-2 2.5 ng/mL) [25] | 13.6
IMC-1 (IL-2 20 ng/mL) [23] | 4.34
KAI3 (IL-2 2.5 ng/mL) [20] | 6.11
KHYG-1 (IL-2 2.5 ng/mL) [27] | 8.95
NK-92 (IL-2 2.5 ng/mL) [16] | 6.84
NK-YS (IL-2 2.5 ng/mL) [24] | 10.1
NKL (IL-2 2.5 ng/mL) [15] | 10.7
SNK-6 (IL-2 2.5 ng/mL) [26] | 13.6
YT (IL-2 2.5 ng/mL) [17] | 8.24
[18] | 12.2
[19] | 10.1
[21] | 9.7
[22] | 8.63
[28] | 9.96

CCCOc1ccn2c(C(C)=O)cc(-c3ccccc3S(C)(=O)=O)c2c1 [GSK2801] (max concentration tested 10000 nM)
percent inhibition of viability [%]
Conditions | 1 nM | 10 nM | 100 nM | 1000 nM | 10000 nM
DERL-7 (IL-2 2.5 ng/mL) [12] | 3.66 | 0.68 | 6.46 | 3.78 | 26.7
IMC-1 (IL-2 20 ng/mL) [10] | -5.58 | -4 | -5.67 | -6.64 | -7.6
KAI3 (IL-2 2.5 ng/mL) [7] | -0.66 | 1.6 | 3.26 | 1.19 | 13.8
KHYG-1 (IL-2 2.5 ng/mL) [14] | -6.23 | -1.14 | -4.5 | -0.03 | 3.02
NK-92 (IL-2 2.5 ng/mL) [3] | 13.2 | -11.5 | -4.85 | -3.31 | 1.17
NK-YS (IL-2 2.5 ng/mL) [11] | -2.46 | -2.16 | -2.35 | -0.19 | 12.5
NKL (IL-2 2.5 ng/mL) [2] | -3.96 | -3.81 | 7.18 | -1.4 | 23.3
SNK-6 (IL-2 2.5 ng/mL) [13] | 9.8 | 1.5 | 0.45 | 0.35 | 15.4
YT (IL-2 2.5 ng/mL) [4] | -2.89 | -0.79 | -3.2 | 1.49 | 5.33
[1] | 0.95 | -8.4 | -3.92 | -5.08 | 3.93
[5] | -9.69 | -17.6 | -10.8 | 10.7 | 38
[6] | -4.35 | -4.55 | -1.61 | -2.13 | 14.3
[8] | -8.08 | -8.31 | -8.28 | 1.69 | 18.7
[9] | -5.87 | 2.4 | -5.15 | -6.31 | 4.35

Conditions | drug sensitivity score
DERL-7 (IL-2 2.5 ng/mL) [25] | 1.67
IMC-1 (IL-2 20 ng/mL) [23] | 0
KAI3 (IL-2 2.5 ng/mL) [20] | 0.24
KHYG-1 (IL-2 2.5 ng/mL) [27] | 0
NK-92 (IL-2 2.5 ng/mL) [16] | 0
NK-YS (IL-2 2.5 ng/mL) [24] | 0.07
NKL (IL-2 2.5 ng/mL) [15] | 0.73
SNK-6 (IL-2 2.5 ng/mL) [26] | 0.29
YT (IL-2 2.5 ng/mL) [17] | 0
[18] | 3.45
[19] | 0.12
[21] | 0.69
[22] | 0
[28] | 0
